Legend:
p44/42 MAPK = test: intracellular phospho-p44/42 MAPK by flow cytometry in ICAM-2 treated Jurkat cells; type: cell-based, human; settings: chemical agents 10 μM, EDTA 1 mM; mAbs titrated prior to ICAM-2
Excerpt: A) Mean fluorescent intensity values (MFI) of ICAM-2-FITC (adhesion) and mAb24-Alexa633, (LFA-1, activation) in treated Jurkat cells (as above). Control unstimulated and/or compound pretreated values were subtracted. B) Top panel: Intracellular phospho-p44/42, MAPK detection as a function of ICAM-2, dose in Jurkat cells by flow cytometry (see Material and Methods). Mean fluorescent intensity values (MFI) were plotted±standard deviation (SD). Bottom panel: ICAM-2, treated Jurkat cells were stained for intracellular phospho-p44/42, MAPK as described above. mAbs to β2, and αL, integrins (10, μg/ml, 10, minutes) were titrated prior to ICAM-2, treatment as indicated and plotted for MFI±SD. C) ICAM-2, induced p44/42, MAPK activity is blocked by β2, and αL, integrin antibodies as determined by a p44/42 MAPK kinase assay. Conditions for induction and inhibition are as described above. Recombinant active p44/42, MAPK served as an internal positive control (denoted by “+”). D) Inhibition and activation profile for intracellular phospho-p44/42, by flow cytometry in the presences of chemical agents (10, μM), EDTA (1, mM), or PMA, ionomycin and ICAM-2, stimulus (as indicated above). MFI values±SD are plotted.
(§1) Intracellular and extracellular staining was performed as described (Perez and Nolan, 2002). Intracellular probes for active kinases were made by conjugating phospho-specific antibodies to the ALEXA FLUOR® dye series as described and used in phospho-protein optimized conditions (Perez and Nolan, 2002). Kinetic analyses was performed by direct application of fixation buffer in time synchronized 96-wells maintained at 37° C. Intracellular actin and microtubule staining was performed using phalloidin-Alexa633 and taxol-Alexa546 dyes (Molecular Probes). Adhesion and clustering assays were performed using ICAM-2-FITC as described in text. LFA-1 activation was assessed by either mAb24-Alexa633 or mAb24-Alexa546 conjugate, surface stained at 37° C. Flow cytometry data are representative of 3 independent experiments of 10^6 cells/sample. 10-50,000 events were collected and manually calibrated on a FACSCalibur™ machine. Data plotted in bar graph format is expressed as geometric mean fluorescence intensity (MFI) and normalized for isotype controls. Log ratios are defined as the MFI of stimulus to the MFI of unstimulated cells. Data was analyzed using Flowjo™ software (Treestar).

NIH3T3 = test: staurosporine induced apoptosis in ICAM-2 transduced NIH3T3 (annexin-V binding, BrdU TUNEL); type: cell-based, murine; settings: for effect on ICAM-2 anti-apoptotic effect, other kinase inhibitors: cell type not stated, data not shown
Description: A) Pharmacological inhibitors of PI3K abrogate ICAM-2's anti-apoptotic. ICAM-2, or vector transduced BaF3, cells were treated with staurosporine (1, μM) with (unfilled) or without (filled) the addition of 100, nM wortmannin for 24, hours (left bar graph). Apoptosis was determined by nuclear staining and fluorescence microscopy (left bar graph) and by annexin-V binding assay (right bar graph). The proportion of apoptotic cells in each culture without staurosporine was 8%+/−2. The percentage of apoptotic cells is expressed as the mean (bar)+SD of triplicate cultures. ICAM-2, 1CAM2-AC, or vector transduced NIH3T3, were treated with staurosporine ([…]) in the presence or absence of 10, μM LY294002, for 24, hours (right bar graph). DMSO vehicle served as negative control. The percentage of apoptotic cells is expressed as the mean (bar)+/−SD of triplicate cultures. B) Confocal images of PI3K and AKT localization in ICAM-2, (top) or vector control cells (bottom). C) Confocal images of ezrin and the p85, subunit of PI3K (green) localization in ICAM-2, (top) or vector control cells (bottom).
A) The anti-apoptotic effect of ICAM-2, is both wortmannin and LY294002, sensitive. ICAM-2, or vector transduced BaF3, cells were treated with staurosporine (1, μM) with (unfilled) or without (filled) the addition of 100, nM wortmannin for 24 hours. Apoptosis was determined by nuclear staining and fluorescence microscopy (left bar graph) and by annexin-V binding assay (right bar graph). The proportion of apoptotic cells in each culture without staurosporine was 8%±2. The percentage of apoptotic cells is expressed as the mean (bar)±SD of triplicate cultures. ICAM-2, ICAM2-ΔC, or vector transduced NIH3T3, were treated with staurosporine (1, μM) in the presence or absence of 10, μM LY294002, for 24, hours. DMSO vehicle served as negative control. The percentage of apoptotic cells is expressed as the mean (bar)±SD of triplicate cultures. B) ICAM-2, expressing NIH3T3, cells are sensitive to apoptosis in the presence of PI3K inhibitor LY294002. BrdU TUNEL assay was performed in staurosporine (1, μM) or LY294002, (10, μM) treated ICAM-2, ICAM2-ΔC, and control vector transduced NIH3T3, cells. The percentage of apoptotic cells is expressed as the mean (bar)±SD of triplicate cultures.
Apoptosis was determined either by counting pyknotic nuclei, annexin-V binding by flow cytometry, or TUNEL BrdU staining by flow cytometry as indicated. Apoptosis was induced either by staurosporine (1 μm), treatment with anti-mouse Fas (5 μq/ml Santa Cruz Biotechnology (SCB), […] Fas (5 μg/ml Jo2 Biomed) or anti-human Fas (10 ng/ml CH11 Kamiya Biomedical) as indicated in appropriate experiment, IL-3 withdrawal-(24 hrs) or as indicated. For pyknolic nuclei count, NIH3T3 cells were grown on glass coverslips and assayed for apoptosis. Suspension cells were analyzed by nuclear staining with 25 μM acridine orange/25 μm ethidium bromide or 5 μg/ml Hoechst 33342 (Molecular Probes, Eugene, Oreg.). Apoptosis was identified by the presence of characteristic pyknotic nuclei as described (Jacobson and Raff, 1995). At least 5 individual fields were photographed and counted using a Zeiss axioscope fluorescence microscope. For the survival assay 10^6 NIH3T3 cells were plated in 10 cm dishes and incubated overnight at 37° C. The cells were treated with 1 μM staurosporine for 24 hours. The cells were washed and cultured for 24 hours in complete medium. The cells were trypsinized and viable cells counted following trypan blue staining. Untreated cells were counted at the time of treatment. % survival represents (number of viable cells post-treatment)/(number of viable cells pretreatment). FACS based annexin-V-FITC/PI staining was done as described (PharMingen). TUNEL assay was performed as described by manufacturer of Apoptosis BrdU kit (Promega). […]

LFA-1 [1] = test: LFA-1 activation by mAb24-Alexa633 staining, flow cytometry; type: cell-based, human; settings: Jurkat cells; agents 10 μM 30 min, PMA 1 μg/ml, prior to ICAM-2 10 μg/ml 30 min
Description: A) Confocal microscopy of actin and microtubule architecture upon ICAM-2, stimulus (10, μg/ml, 30, min) in Jurkat cells. Actin was stained by phalloidin-alexa633, and tubulin by taxol-alexa546. Inserts display enlarged cell image of representative treatment B) Flow cytometric staining for actin and microtubules as described above. C) Left: Fluorescence topography analysis of ICAM-2-FITC (1 μg/ml, time as indicated) surface distribution. Intensity color gradient depicts high and low fluorescent intensity values. Right: Confocal microscopy of ICAM-2-FITC surface binding (10 μg/ml, 30, min) and anti-β2-alexa568, (clone CTB104). D) Staining for ICAM-2-FITC surface binding (fluorescence intensity) and surface distribution (fluorescence pulse) in cytochalisin D treated Jurkat cells at 37° C. and 4° C. by flow cytometry. E) Values for ICAM-2-FITC fluorescence intensity per time-of-flight per cell as described in text. F) Flow cytometric staining for LFA-1 activation by mAb24-alexa633. Stimuli as indicated (10, μM, 30, min), PMA (1, μg/ml) prior to ICAM-2, stimulation (10, μg/ml, 30, min). Staining was performed at 37° C. G) Mean fluorescence intensity (MFI) values of mAb24-633, and ICAM-2, cluster values, computed as described above, as a function of time.
as §1

Pyk2 = test: sICAM-2 induced Pyk2 phosphorylation (phospho-tyrosine based ELISA, chemical genetic approach); type: cell-based; settings: phospho-tyrosine based ELISA
Excerpt: E) depicts that LFA-1, induced phosphorylation of Pyk2, and Syk is dependent on PKC. We screened for the inhibition of sICAM-2, induced Pyk2, and Syk phosphorylation by chemical inhibitors to tyrosine kinases using a phospho-tyrosine based ELISA. Pyk2, phosphorylation was abrogated in the presence of PKC inhibitors bisindolymaleimide II (BIM II) and staurosporine (STP), in addition to tyrphostin A9, a specific Pyk2, inhibitor. a Pyk2, phosphorylation was also affected by inhibitors of phospholipase Cg (neomycin), inhibitors of Syk (piceatannol), and PKC inhibitor BIM I. Syk phosphorylation was completely abolished by inhibition of Pyk2, PLCg1, and strongly affected by PKC inhibitors. Thus, both Pyk2, and Syk phosphorylations were dependent on PKC activity, while Syk phosphorylation was additionally dependent on PLCg1, and Pyk2, activity. It was not possible to assess specific PKC isozymes by this method.
A chemical genetic approach was undertaken to determine the hierarchy of PKC, Pyk2, PLCg1, and Syk activities in response to sICAM-2, stimulus by verifying phosphorylation status of each kinase in the presence of respective chemical inhibitors. Inhibition of PKC with BIM II abrogated phosphorylation of Pyk2, PLCg1, and Syk. Inhibition of PLCg1, by neomycin abrogated phosphorylation of Syk, with no inhibition observed for Pyk2. […] Thus, the upstream signaling events from LFA-1, to Raf-1, appear to involve PKC/Pyk2/PLCg1/Syk. […] We are currently pursuing these complexes in a separate study.

LFA-1 [2] = biological target: LFA-1 (Homo sapiens, UniProt P20701); settings: cited from earlier work
Chain of LFA-1 (Homo sapiens, UniProt P20701) (P20701 26-1170): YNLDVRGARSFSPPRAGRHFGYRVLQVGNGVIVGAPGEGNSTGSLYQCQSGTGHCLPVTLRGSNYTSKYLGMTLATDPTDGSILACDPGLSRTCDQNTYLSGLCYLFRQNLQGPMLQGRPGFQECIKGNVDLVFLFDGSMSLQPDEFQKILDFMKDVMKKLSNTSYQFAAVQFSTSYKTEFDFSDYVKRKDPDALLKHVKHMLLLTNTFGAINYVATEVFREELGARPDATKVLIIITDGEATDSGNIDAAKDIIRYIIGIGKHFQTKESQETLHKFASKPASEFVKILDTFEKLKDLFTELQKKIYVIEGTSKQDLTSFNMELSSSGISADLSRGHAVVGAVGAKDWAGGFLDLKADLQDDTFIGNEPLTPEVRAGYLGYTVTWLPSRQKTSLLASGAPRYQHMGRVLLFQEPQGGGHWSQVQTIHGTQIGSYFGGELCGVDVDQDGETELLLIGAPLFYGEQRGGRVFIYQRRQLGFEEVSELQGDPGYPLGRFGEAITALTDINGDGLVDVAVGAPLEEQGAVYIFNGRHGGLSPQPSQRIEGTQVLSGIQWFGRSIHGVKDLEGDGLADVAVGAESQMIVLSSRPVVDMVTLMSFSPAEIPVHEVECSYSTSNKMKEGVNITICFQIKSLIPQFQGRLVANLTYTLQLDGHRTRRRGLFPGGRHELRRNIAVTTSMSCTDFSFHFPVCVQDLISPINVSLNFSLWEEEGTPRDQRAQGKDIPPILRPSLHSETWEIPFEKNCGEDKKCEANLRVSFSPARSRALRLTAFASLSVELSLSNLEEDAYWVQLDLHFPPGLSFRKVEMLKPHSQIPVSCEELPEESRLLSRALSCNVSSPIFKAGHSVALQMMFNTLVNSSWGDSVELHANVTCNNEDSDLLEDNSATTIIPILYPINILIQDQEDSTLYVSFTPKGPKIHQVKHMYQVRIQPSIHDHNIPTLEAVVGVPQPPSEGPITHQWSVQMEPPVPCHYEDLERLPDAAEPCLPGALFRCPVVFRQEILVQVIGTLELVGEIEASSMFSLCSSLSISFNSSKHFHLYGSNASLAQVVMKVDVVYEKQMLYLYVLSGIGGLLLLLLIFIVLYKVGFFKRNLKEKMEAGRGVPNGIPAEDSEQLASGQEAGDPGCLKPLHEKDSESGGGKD
Chain of LFA-1 (Homo sapiens, UniProt P20701) (P05107 23-769 partner): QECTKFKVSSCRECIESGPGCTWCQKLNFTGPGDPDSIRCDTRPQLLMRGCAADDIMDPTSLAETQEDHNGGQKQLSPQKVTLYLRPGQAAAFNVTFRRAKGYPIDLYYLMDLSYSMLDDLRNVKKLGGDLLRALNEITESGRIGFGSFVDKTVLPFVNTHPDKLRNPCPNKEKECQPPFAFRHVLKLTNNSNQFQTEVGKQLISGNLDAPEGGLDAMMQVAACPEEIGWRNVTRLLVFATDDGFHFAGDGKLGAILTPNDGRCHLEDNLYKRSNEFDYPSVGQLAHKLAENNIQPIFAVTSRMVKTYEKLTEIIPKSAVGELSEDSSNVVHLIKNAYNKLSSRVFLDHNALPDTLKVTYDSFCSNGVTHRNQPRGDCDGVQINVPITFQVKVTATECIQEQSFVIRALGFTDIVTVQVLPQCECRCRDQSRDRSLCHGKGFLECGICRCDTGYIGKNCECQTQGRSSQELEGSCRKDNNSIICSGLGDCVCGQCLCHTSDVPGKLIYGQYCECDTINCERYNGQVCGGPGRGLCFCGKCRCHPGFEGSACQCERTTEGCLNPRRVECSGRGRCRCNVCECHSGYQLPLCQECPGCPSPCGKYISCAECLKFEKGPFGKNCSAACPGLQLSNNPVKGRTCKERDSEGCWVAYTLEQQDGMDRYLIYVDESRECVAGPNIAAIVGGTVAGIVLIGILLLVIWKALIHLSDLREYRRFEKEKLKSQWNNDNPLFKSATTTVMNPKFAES

Molecule	effect on ICAM-2 induced p44/42 MAPK phosphorylation (p44/42 MAPK)	effect on ICAM-2 anti-apoptotic effect, other kinase inhibitors (NIH3T3)	LFA-1 activation (mAb24 binding) (LFA-1 [1])	further results
O=C(O)CN(CCN(CC(=O)O)CC(=O)O)CC(=O)O [EDTA]	diminished			
Cc1cc(O)c2c(c1)C(=O)c1cc(O)cc(O)c1C2=O [Emodin]	no effect			
O=S(=O)(NCCNC/C=C/c1ccc(Br)cc1)c1cccc2cnccc12 [H-89]		not abrogated		
CCCCCCCCCCCCCC(=O)O[C@@H]1[C@@H](C)[C@@]2(O)[C@@H](C=C(CO)C[C@]3(O)C(=O)C(C)=C[C@@H]23)[C@@H]2C(C)(C)[C@]12OC(C)=O [PMA, phorbol myristelated acetate]			induction	
C[S+]([O-])c1ccc(-c2nc(-c3ccncc3)c(-c3ccc(F)cc3)[nH]2)cc1 (stereo not drawn) [SB 203580]		not abrogated		
N#CC(=C(/N)Sc1ccccc1N)/C(C#N)=C(\N)Sc1ccccc1N [U0126]		not abrogated		
COC(=O)Nc1nc2cc(C(=O)c3cccs3)ccc2[nH]1 [nocodazole]	diminished		full activation of LFA-1	
CN[C@@H]1C[C@H]2O[C@@](C)([C@@H]1OC)n1c3ccccc3c3c4c(c5c6ccccc6n2c5c31)C(=O)NC4 [staurosporine]				sICAM-2 induced Pyk2 phosphorylation (Pyk2): abrogated; ICAM-2 induced survival signal (NIH3T3; PKC isozyme inhibitors, system not specified): did not abrogate
CC(=O)O[C@H]1C(=O)[C@@]2(C)[C@H]([C@H](OC(=O)c3ccccc3)[C@]3(O)C[C@H](OC(=O)[C@H](O)[C@@H](NC(=O)c4ccccc4)c4ccccc4)C(C)=C1C3(C)C)[C@]1(OC(C)=O)CO[C@@H]1C[C@@H]2O [taxol]	diminished		full activation of LFA-1	
P1: synthesized peptide of ICAM-2's first Ig domain (P1, amino acids 21-42) (GSDEKVFEVHVRPKKLAVEPKG; UniProt P13598 21-42, looked up, fragment)				concentration inducing LFA-1 mediated adhesion (LFA-1 [2]; bulk cellular adhesion assay): 62 µM; calcium influx (LFA-1 [2]): did not induce calcium influx; induction of the active conformation of LFA-1 (LFA-1 [2]): did not induce the active conformation of LFA-1

Source: patent US8962263B2, “Methods and compositions for detecting the activation state of multiple proteins in single cells” (The Board of Trustees of the Leland Stanford Junior …, priority 2001, dated 2015)
